Measured values from the supplement of paper PMC4862054.

Experiments:
Settings in all cases: incubation time: 72 h
MDA-MB-453 = assay: drug sensitivity score (DSS), CellTiter-Blue viability (DSS (AUC-based score)); higher = stronger viability inhibition; extreme values may be limits of the assay
Method: (§1)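 DSRT with the CellTiter-Blue (resazurin reduction) viability readout, fluorescence 560/590 nm, 72 h incubation. Plates were normalised to DMSO and benzethonium chloride controls. DSS is computed from the area under the fitted dose-response curve (5 or 9 concentrations).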

HCC1143 [1] = assay: as above
Method: as §1

HCC1599 = assay: as above
Method: as §1

SK-BR-3 = assay: as above
Method: as §1

MDA-MB-231 [2] = assay: as above
Method: as §1

MFM-223 = assay: as above
Method: as §1

BT-474 [3] = assay: as above
Method: as §1

BT-549 [4] = assay: as above
Method: as §1

CAL-120 = assay: as above
Method: as §1

CAL-148 = assay: as above
Method: as §1

DU-4475 [5] = assay: as above
Method: as §1

HDQ-P1 = assay: as above
Method: as §1

CAL-51 = assay: as above
Method: as §1

CAL-85-1 = assay: as above
Method: as §1

MDA-MB-436 [6] = assay: as above
Method: as §1

MDA-MB-468 [7] = assay: as above
Method: as §1

HCC1937 = assay: as above
Method: as §1

Hs578T = assay: as above
Method: as §1

HCC1143 [8] = assay: drug sensitivity score (DSS), CellTiter-Glo (DSS (AUC-based score)); higher = stronger drug effect (viability inhibition or cytotoxicity); extreme values may be limits of the assay
Outline: (§2)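 The drug sensitivity score reflects the area under a fitted dose-response curve. To obtain it, breast cancer cells in 20 µl suspension were seeded into 384-well plates containing compound at 5 concentrations, 10-fold apart over a compound-specific 10,000-fold range, and incubated 72 h. CellTox Green fluorescence (485/520 nm) was read first and CellTiter-Glo luminescence second, after 10 min at room temperature. Each plate was normalised to 0.1 % DMSO and a positive kill control.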

MCF-10A = assay: as above
Outline: as §2

MDA-MB-231 [9] = assay: as above
Outline: as §2

BT-474 [10] = assay: as above
Outline: as §2

BT-549 [11] = assay: as above
Outline: as §2

DU-4475 [12] = assay: as above
Outline: as §2

MDA-MB-436 [13] = assay: as above
Outline: as §2

MDA-MB-468 [14] = assay: as above
Outline: as §2

Row | SMILES | drug sensitivity score (MDA-MB-453) | drug sensitivity score (HCC1143 [1]) | drug sensitivity score (HCC1599) | drug sensitivity score (SK-BR-3) | drug sensitivity score (MDA-MB-231 [2]) | drug sensitivity score (MFM-223) | drug sensitivity score (BT-474 [3]) | drug sensitivity score (BT-549 [4]) | drug sensitivity score (CAL-120) | drug sensitivity score (CAL-148) | drug sensitivity score (DU-4475 [5]) | drug sensitivity score (HDQ-P1) | drug sensitivity score (CAL-51) | drug sensitivity score (CAL-85-1) | drug sensitivity score (MDA-MB-436 [6]) | drug sensitivity score (MDA-MB-468 [7]) | drug sensitivity score (HCC1937) | drug sensitivity score (Hs578T) | drug sensitivity score (HCC1143 [8]) | drug sensitivity score (MCF-10A) | drug sensitivity score (MDA-MB-231 [9]) | drug sensitivity score (BT-474 [10]) | drug sensitivity score (BT-549 [11]) | drug sensitivity score (DU-4475 [12]) | drug sensitivity score (MDA-MB-436 [13]) | drug sensitivity score (MDA-MB-468 [14])
1 | CO[C@@]12[C@H](COC(N)=O)C3=C(C(=O)C(C)=C(N)C3=O)N1C[C@@H]1N[C@@H]12 [Mitomycin C] | 5.18 | 8.46 | 8.65 | 9.21 | 5.97 | 4.69 | 3.1 | 4.28 | 2.85 | 5.96 | 3.3 | 2.19 | 2.74 | 4.52 | 6.47 | 7.16 | 14.1 | 4.97 | 0 | 0 | 0 | 0 | 8.27 | 0 | 3.39 | 4.87
2 | CC(O)(CS(=O)(=O)c1ccc(F)cc1)C(=O)Nc1ccc(C#N)c(C(F)(F)F)c1 (stereo not drawn) [Bicalutamide] | 0 | 0 | 0 | 0 | 0 | 0 | 0 | 0 | 0 | 0 | 0 | 0 | 0 | 0 | 0 | 4.86e-06 | 0 | 0 | 0 | 0 | 0 | 0 | 0 | 0 | 0 | 0
3 | CCNC(=O)c1noc(-c2cc(C(C)C)c(O)cc2O)c1-c1ccc(CN2CCOCC2)cc1 [NVP-AUY922] | 20.8 | 9.99 | 9.96 | 22.8 | 17.3 | 20.9 | 15.2 | 19.6 | 21.3 | 18.1 | 21.7 | 18 | 18.6 | 16 | 20.7 | 19.4 | 26.1 | 18.8 | 11.2 | 16.2 | 13.3 | 13 | 14.1 | 17.8 | 14.8 | 21.8
